In publication PMC8063026 (Frontiers in Pharmacology, 2021):
Like-named read-outs stand apart in the source and are kept apart here.

Experiments:
DAT [1] = molecular target: T1, DAT (Homo sapiens, UniProt Q01959); experiment: cell-based
T1 construct: expressed in transfected cells

human NET = molecular target: T2, human NET (Homo sapiens, UniProt P23975); experiment: cell-based
T2 construct: expressed in transfected cells

SERT [2] = molecular target: T3, SERT (Homo sapiens, UniProt P31645); experiment: Uptake-inhibition of [3H]5-HT in HEK293 cells stably expressing human SERT; type: cell-based
T3 construct: expressed in transfected cells
T3 sequence (P31645 whole entry): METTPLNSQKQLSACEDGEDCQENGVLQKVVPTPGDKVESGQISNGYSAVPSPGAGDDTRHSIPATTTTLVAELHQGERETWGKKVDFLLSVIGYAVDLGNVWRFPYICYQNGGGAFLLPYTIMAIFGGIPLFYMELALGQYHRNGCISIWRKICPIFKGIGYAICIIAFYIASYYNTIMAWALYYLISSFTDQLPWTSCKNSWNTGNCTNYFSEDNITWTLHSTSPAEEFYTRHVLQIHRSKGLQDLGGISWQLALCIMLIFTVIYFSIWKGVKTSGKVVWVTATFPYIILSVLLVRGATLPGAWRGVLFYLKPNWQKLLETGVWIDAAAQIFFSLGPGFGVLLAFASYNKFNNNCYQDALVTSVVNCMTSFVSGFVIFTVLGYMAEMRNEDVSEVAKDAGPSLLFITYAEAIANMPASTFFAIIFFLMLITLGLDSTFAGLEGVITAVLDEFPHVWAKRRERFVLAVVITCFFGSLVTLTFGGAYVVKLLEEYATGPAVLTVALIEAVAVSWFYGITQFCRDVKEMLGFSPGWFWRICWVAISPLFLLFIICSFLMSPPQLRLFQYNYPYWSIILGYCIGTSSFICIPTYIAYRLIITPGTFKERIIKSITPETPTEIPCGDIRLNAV

SERT [3] = molecular target: T3, SERT; conditions: read-out: IC50 SERT; QSAR data matrix; unit inferred; compounds not tested in this paper, source not given, presumably ref Mayer et al., 2019; cited from earlier work
[4] = LC-MS/MS detection of mephedrone metabolites in a human urine sample; type: in vivo; design: key to Detected in urine samples: detected (+); not detected (−); conditions: for detection in human urine sample: achiral LC-MS/MS, after enzymatic workup; for Detected in urine samples: human urine, mephedrone user, only syn- and anti-configurations could be separated
From the text: The biological specimen, human urine, was provided by the Department of Chemical Analytics, Seibersdorf Laboratories GmbH. The sample was taken from a subject postmortem in a fatal case of drug overdose. […] Given this fact, we assumed that also the metabolites would be detectable in sufficient quantity. To evaluate the presence of any metabolites whatsoever in the urine sample we designed an achiral separation protocol for liquid chromatography and we coupled it with triple quadrupole mass spectrometer. The advantage of LC-MS/MS system is that even if two substances have the same retention time, they can still be differentiated by their fragmentation pattern. More in details, the samples for urine analysis were analyzed using a CTC HTS PAL autosampler (CTC Analytics) and a Thermo Surveyor LC system (Thermo) interfaced to a TSQ Quantum Discovery Max triple quadrupole mass spectrometer (Thermo). A C18 security guard cartridge (4 × 2 mm) (Phenomenex) was used for sample clean-up and the analytical HPLC column was a Kinetex 1.7 μm C18 100Å 150 × 2.1 mm (Phenomenex) and Cortecs T3, 2.7 μm C18 120Å 100 × 2.1 mm (Waters). Column selection was performed by a Maylab Mistraswitch column selector (Maylab Analytical Instruments). The solvents were 0.2% formic acid in water (A) and acetonitrile (B). The temperature of the analytical column was maintained at 40°C. The mass spectrometer was equipped with heated electrospray ionization (ESI) source and was operated in positive ionization mode with a spray voltage set at 4500V. The capillary temperature was adjusted to 320°C. The sheath and auxiliary gas (nitrogen) flow rate was 25 and 10 arbitrary units, respectively. The system was operated in selected […] (srm) mode with argon as the collision gas at a pressure of 1.5 mTorr. For the achiral separation, stem solutions were prepared by weighing the reference substances in volumetric flasks and filling them up with MeOH (99.9%; HPLC grade), creating average concentration of 1 mg/ml. Then dilution solutions were prepared as follows: 10 μL of stem solution was filled up to 5 ml MeOH, creating dilution […]. Samples were prepared from dilution solutions by taking out 25 μL and mixing it together with 25 μL of ISP, 50 μL ISS and filled up to 1 ml with Milli-Q water. The final sample solvent was water/MeOH 9/1. For the enzymatic workup, phosphate buffer (1 ml, 0.8M, pH = 7), β-glucuronidase/arylsulfatase (25 μL) and β-glucuronidase (25 μL) were added to the solutions. The solutions were heated at 50°C during 1 h upon which EtOAc (7 ml) was added. The solution was put into shaker for 10min, following centrifugation for 5 min. The organic phase was separated and evaporated into dryness in stream of pressurized nitrogen. The residue was taken up in 150 μL MQ-water/MeOH 9/1 + 0.4% formic acid, heated at 50°C for 5 min and subjected to LC-MS analysis.
If on one hand the synthesis of putative metabolites allows the establishment of structure activity relationships, on the other hand, it provides pure material to evaluate their presence in human urine samples and determine their pharmacological relevance. To determine the presence of any metabolites in the urine sample, we have designed an achiral separation protocol and coupled the liquid chromatography with triple quadrupole mass spectrometer (LCMS/MS). With the LCMS/MS system two substances with the same retention time, can still be differentiated by their fragmentation pattern. Since metabolites carrying a primary alcohol functionality can form glucuronide and sulfate conjugates, we performed an enzymatic workup of the urine sample in order to cleave them. Apart from the parental drug, we detected 4-OH-MMC and 4-MC (nor-meph) which we have both already identified in our previous publication ([Mayer et al., 2019]), and the two previously uncharacterized metabolites 4-COOH-MC and dihydro-4-MC (Figure 6). […]

DAT [5] = molecular target: T1, DAT; experiment: Transporter electrophysiology (whole cell patch clamp), HEK293 cells stably expressing DAT; type: cell-based; conditions: compound applied at 30 µM, -60 mV
Procedure: (§1) Human embryonic kidney 293 cells (HEK293 cells) were cultivated in Dulbecco’s Modified Eagle Medium (DMEM), containing 10% heat-in- activated fetal calf serum (FCS), streptomycin (100 μg x 100 ml−1) and penicillin (100 U × 100 ml−1). Geneticin (50 μg x mL−1) was added to select HEK293 cells stably expressing the human isoforms of DAT, NET and SERT as described earlier ([Mayer et al., 2016a]). Cell lines were maintained in a sub-confluent state in humidified atmosphere (37°C, 5% CO2). For uptake inhibition experiments cells expressing the desired transporter were seeded the days before the experiment (40,000 cells per well) or two days before the experiments (20,000 cells per well) onto poly-D-lysine (PDL) coated 96-well plates 24 h prior to the experiment. In the case of transporter-electrophysiology cells were cultivated in 10 cm dishes and 24 h before the experiments they were detached, and seeded at low density onto PDL-coated 3 cm dishes.
(§2) Transporter electrophysiology was conducted by the means of whole cell patch clamp in HEK293 cells stably expressing DAT or SERT. Substrate-induced currents were recorded under voltage clamp (−60 mV). Cells were continuously superfused with a physiological external solution that contains 140 mM NaCl, 2.5 mM CaCl2, 2 mM MgCl2, 20 mM glucose and 10 mM HEPES, pH = 7.4. The pipette solution contained 133 mM potassium gluconate, 6 mM NaCl, 1 mM CaCl2, 0.7 mM MgCl2, 10 mM HEPES, 10 mM EGTA, pH = 7.2. Currents elicited by mephedrone 30 μM, were measured at room temperature (20–24°C) using an […] amplifier and pClamp 11.2 software (MDS Analytical Technologies). All the solutions perfused onto the cell were applied using a DAD-12 superfusion system and a 8-tube perfusion manifold (ALA Scientific Instruments), which allowed for rapid solution exchange. Current traces were filtered at 1 kHz and digitized at 10 kHz using a Digidata 1,550 (MDS Analytical Technologies). […] For the analysis, passive holding currents were subtracted, and the traces were filtered using a 100-Hz digital Gaussian low-pass filter.

SERT [6] = molecular target: T3, SERT; experiment: Transporter electrophysiology (whole cell patch clamp), HEK293 cells stably expressing SERT; type: cell-based; conditions: compound applied at 30 µM, -60 mV
Procedure: as §1, §2

[7] = QSAR data matrix, from IC50 DAT, read-out: pIC50 DAT (converted)
[8] = mean (95% confidence interval), non-linear regression, read-out: IC50 (µM) DAT
[9] = mean (95% confidence interval), non-linear regression, read-out: IC50 (µM) NET
[10] = IC50 (µM) SERT, mean (95% confidence interval), non-linear regression
[11] = IC50 SERT, QSAR data matrix, unit inferred
[12] = mean (95% confidence interval), non-linear regression, read-out: IC50 (µM) SERT
[13] = QSAR data matrix, unit inferred, read-out: IC50 SERT

T2 sequence (P23975 whole entry): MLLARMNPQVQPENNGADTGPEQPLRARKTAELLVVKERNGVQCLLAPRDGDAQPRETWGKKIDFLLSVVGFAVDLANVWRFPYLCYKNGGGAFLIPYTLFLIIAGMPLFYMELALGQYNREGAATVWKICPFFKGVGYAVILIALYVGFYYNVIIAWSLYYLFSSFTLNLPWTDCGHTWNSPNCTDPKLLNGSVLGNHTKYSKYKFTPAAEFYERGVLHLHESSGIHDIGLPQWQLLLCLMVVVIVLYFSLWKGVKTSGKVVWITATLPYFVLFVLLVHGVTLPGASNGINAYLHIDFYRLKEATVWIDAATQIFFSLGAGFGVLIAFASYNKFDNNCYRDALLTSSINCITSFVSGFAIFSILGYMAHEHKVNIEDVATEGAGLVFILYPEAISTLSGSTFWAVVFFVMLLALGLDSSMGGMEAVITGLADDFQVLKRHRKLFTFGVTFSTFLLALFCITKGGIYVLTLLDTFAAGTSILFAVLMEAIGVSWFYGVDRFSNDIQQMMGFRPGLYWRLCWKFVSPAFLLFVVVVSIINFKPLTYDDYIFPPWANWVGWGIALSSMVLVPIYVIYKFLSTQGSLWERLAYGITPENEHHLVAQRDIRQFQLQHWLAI
T1 sequence (Q01959 whole entry): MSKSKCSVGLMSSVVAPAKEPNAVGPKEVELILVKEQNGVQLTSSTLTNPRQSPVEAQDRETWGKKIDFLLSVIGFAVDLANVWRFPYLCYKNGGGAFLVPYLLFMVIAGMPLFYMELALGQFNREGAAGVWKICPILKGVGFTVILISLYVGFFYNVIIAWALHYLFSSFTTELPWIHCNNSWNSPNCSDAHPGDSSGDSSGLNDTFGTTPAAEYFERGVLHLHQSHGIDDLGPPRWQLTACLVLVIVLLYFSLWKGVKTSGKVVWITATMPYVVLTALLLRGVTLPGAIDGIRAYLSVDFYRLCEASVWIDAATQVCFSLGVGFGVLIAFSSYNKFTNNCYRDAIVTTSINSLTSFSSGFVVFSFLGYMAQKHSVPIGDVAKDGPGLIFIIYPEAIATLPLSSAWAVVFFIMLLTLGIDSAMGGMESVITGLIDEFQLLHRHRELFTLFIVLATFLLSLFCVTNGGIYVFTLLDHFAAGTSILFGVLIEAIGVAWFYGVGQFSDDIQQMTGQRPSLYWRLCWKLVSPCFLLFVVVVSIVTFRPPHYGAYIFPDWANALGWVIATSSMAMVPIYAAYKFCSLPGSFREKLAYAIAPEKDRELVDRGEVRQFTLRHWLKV

Row | Structure (SMILES) | IC50 (DAT [1]; [7]) [µM] | Selectivity ratio DAT/SERT (DAT [1]) | IC50 (DAT [1]; [8]) [µM] | Selectivity ratio NET/DAT (human NET) | IC50 (human NET; [9]) [µM] | Detected in urine samples [4] | IC50 (SERT [2]; [12]) [µM] | other results
1 | CN[C@H](C)C(=O)c1ccc(C)cc1 [2R-MMC, R-mephedrone, reference compound] | 0.776 |  |  |  |  |  |  | IC50 (human NET): 2.75 µM; IC50 (SERT [2]; pIC50 SERT, QSAR data matrix, from IC50 SERT): 74.1 µM; IC50 (SERT [3]): 74.8 µM
2 | CNC(C)C(=O)c1ccc(CO)cc1.Cl (stereo not drawn) [4-OH-MMC, 4-OH-mephedrone, reference compound] |  |  |  |  |  |  |  | detection in human urine sample [4]: detected
3 | Cc1ccc([C@@H](O)[C@@H](C)N)cc1 [Dihydro-(R,R)-4-MC] | 8.13 | 9.26 | 8.05 | 0.44 | 18.1 | + |  | IC50 (SERT [2]; [10]): 74.6 µM; IC50 (SERT [2]; [11]): 74.6 µM; DAT-mediated current (DAT [5]; listed as dihydro-(R,R)-4-MC): absence of DAT-mediated current; DAT-mediated current (DAT [5]; listed as dihydro-(R,R)-4 MC): elicited only SERT-mediated currents; SERT-mediated current (SERT [6]): elicited only SERT-mediated currents
4 | C[C@@H](N)[C@H](O)c1ccc(CO)cc1 [Dihydro-(R,R)-4-OH-MC] | 28.2 | 48.42 | 28.3 | 0.61 | 46.5 | − | 1370 | IC50 (SERT [2]; in Figure 3, read-out: IC50(SERT)): 1400 µM; DAT-mediated current (DAT [5]): did not elicit any DAT or SERT-mediated current; SERT-mediated current (SERT [6]): did not elicit any DAT or SERT-mediated current
5 | C[C@H](N)[C@H](O)c1ccc(CO)cc1 [Dihydro-(R,S)-4-OH-MC] | 100 | 3.86 | 99.1 | 1.60 | 62 | − | 383 | IC50 (SERT [2]; [13]): 383 µM
6 | CN[C@@H](C)[C@H](O)c1ccc(CO)cc1 [Dihydro-(R,S)-4-OH-MMC] | 85.1 | 5.87 | 84.5 | 1.57 | 53.9 | − | 496 | IC50 (SERT [2]; [13]): 496 µM
7 | Cc1ccc([C@H](O)[C@@H](C)N)cc1 [Dihydro-(S,R)-4-MC] | 15.5 | 11.53 | 15.5 | 0.37 | 41.8 | + |  | IC50 (SERT [2]; [10]): 178 µM; IC50 (SERT [2]; [11]): 178 µM; DAT-mediated current (DAT [5]): absence of DAT-mediated current
8 | C[C@@H](N)[C@@H](O)c1ccc(CO)cc1 [Dihydro-(S,R)-4-OH-MC] | 91.2 | 12.68 | 91.2 | 1.09 | 83.4 | − | 1160 | 
9 | CN[C@H](C)[C@@H](O)c1ccc(CO)cc1 [Dihydro-(S,R)-4-OH-MMC] | 77.6 | 40.99 | 77 | 1.55 |  | − | 3160 | IC50 (human NET; QSAR data matrix, from IC50 NET, read-out: pIC50 NET (converted)): 50.1 µM
10 | C[C@H](N)[C@@H](O)c1ccc(CO)cc1 [Dihydro-(S,S)-4-OH-MC] | 58.9 | 9.92 | 59.2 | 4.71 | 12.6 | − | 588 | 
11 | CN[C@@H](C)[C@@H](O)c1ccc(CO)cc1 [Dihydro-(S,S)-4-OH-MMC] | 162 | 11.49 | 161 | 0.55 | 291 | − | 1850 | 
12 | Cc1ccc(C(O)C(C)N)cc1 (stereo not drawn) [dihydro-4-MC, dihydro-4-nor-mephedrone] |  |  |  |  |  |  |  | detection in human urine sample [4]: detected
13 | CNC(C)C(O)c1ccc(CO)cc1 (stereo not drawn) [dihydro-4-OH-MMC] |  |  |  |  |  |  |  | detection in human urine sample [4]: not found
